Experimental data taken from US20250214993A1, “AROMATIC RING COMPOUND AND USE THEREOF” (SHANGHAI SHIJIANG BIOTECHNOLOGY CO., LTD, priority 2022, published 2025).
Where two headings read alike, the source gives them in different places.

Legend:
[1] = test system: mitochondria permeability transition pore (mPTP); test: Mitochondria membrane potential difference by TMRM in Daoy cell; type: cell-based, human; conditions: CsA −, H2O2 +, untreated = 100
[2] = test system: mitochondria permeability transition pore (mPTP); type: cell-based, human; conditions: Daoy cell with empty virus vector; CsA −, H2O2 +; untreated = 100
[3] = test system: mitochondria permeability transition pore (mPTP); conditions: Daoy cell with PPIF shRNA vector; CsA −, H2O2 +; untreated = 100
[4] = test system: Con-NCI-H82 cell; test: Cell viability (Promega CellTiter-Glo, intracellular ATP), IC50 on Con-NCI-H82 cell; type: cell-based; conditions: Homo sapiens; normal untreated NCI-H82 cell (control)
Summary of the method: (§1)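 Con-NCI-H82 cells and NCI-H82 cells overexpressing NNMT via a viral vector were grown in RPMI1640 with 10% FBS. Viability was read as intracellular ATP by CellTiter-Glo luminescence, giving IC50.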

[5] = test system: ov-NNMT NCI-H82 cell; test: Cell viability (Promega CellTiter-Glo, intracellular ATP), IC50 on NNMT-overexpressing NCI-H82 cell; type: cell-based; conditions: Homo sapiens; NCI-H82 cell overexpressing NNMT protein
Summary of the method: as §1

[6] = test system: mPTP-active Daoy cell; test: Cell viability (Promega CellTiter-Glo), IC50 on mPTP-active Daoy cell; type: cell-based; conditions: Homo sapiens; Daoy cell transfected with empty virus vector
[7] = test system: mPTP-inactive Daoy cell; test: Cell viability (Promega CellTiter-Glo), IC50 on mPTP-inactive Daoy cell (PPIF shRNA); type: cell-based; conditions: Homo sapiens; Daoy cell transfected with PPIF shRNA vector

IC50 [5] | Structure (SMILES) | Relative TMRM signal intensity (%), mean value [1] | Relative TMRM signal intensity (%), mean value [2] | Relative TMRM signal intensity (%), mean value [3] | IC50 [4] | IC50 [6] | IC50 [7]
245 nM | Cc1ccc2c(c1)CCC(n1ccc3c[n+](C(C)c4ccccc4)ccc31)C2 (centres unmarked) [AB27181] | – | – | – | 17 nM | 190 nM | 70 nM
7240 nM | Cc1c(Cl)c2c[n+](Cc3ccccc3)ccc2n1CC(=O)c1cccc(OC(F)(F)F)c1 [AB27483] | – | – | – | 1160 nM | 8240 nM | 2080 nM
489 nM | O=C(Cn1c(Cl)cc2c[n+](Cc3ccccc3)ccc21)c1cccc(OC(F)(F)F)c1 [AB27486] | – | – | – | 34 nM | 580 nM | 280 nM
182 nM | O=C1c2cc(C(F)(F)F)ccc2CCC1n1ccc2c[n+](Cc3ccccc3)ccc21 (centres unmarked) [AB27190] | – | – | – | 13 nM | 130 nM | 40 nM
11000 nM | O=C(C[n+]1ccc2c(c1)CCC(c1ccccc1)N2)c1ccc(OC(F)(F)F)cc1 (centres unmarked) [AB27103] | – | – | – | 1480 nM | 8980 nM | 4090 nM
9820 nM | O=C1c2cc(Cl)ccc2CCC1[n+]1ccc(NCc2ccccc2)nc1 (centres unmarked) [AB27138] | – | – | – | 1100 nM | 8820 nM | 3620 nM
1490 nM | Cc1c(C)n(CC(=O)c2cccc(OC(F)(F)F)c2)c2cc[n+](Cc3ccccc3)cc12 [AB27492] | – | – | – | 174 nM | 3750 nM | 1210 nM
5460 nM | Cc1ccc(C(=O)C[n+]2ccc(N3CCc4ccccc43)cc2C)cc1 [AB27306] | – | – | – | 737 nM | 9910 nM | 3230 nM
3550 nM | CN1c2nc[n+](C3CCc4ccc(Cl)cc4C3=O)cc2CCC1c1ccccc1 (centres unmarked) [AB27198] | – | – | – | 700 nM | 7550 nM | 1890 nM

Continued, compound first:

Structure (SMILES) | IC50 [5] | Relative TMRM signal intensity (%), mean value [1] | Relative TMRM signal intensity (%), mean value [2] | Relative TMRM signal intensity (%), mean value [3] | IC50 [4] | IC50 [6] | IC50 [7]
OO [Compound H2O2, H2O2] | – | 82% | 79% | 95% | – | – | –
O=C1c2cc(Cl)ccc2CCC1n1ccc2c[n+](Cc3ccccc3)ccc21 (centres unmarked) [AB27187] | 252 nM | – | – | – | 14 nM | 210 nM | 50 nM
CCCCn1ccc2c[n+](C3CCc4ccc(Cl)cc4C3=O)ccc21 (centres unmarked) [AB27251] | 2680 nM | – | – | – | 482 nM | 7890 nM | 1960 nM
Cc1ccc(C(=O)C[n+]2ccc(NCc3ccccc3)cc2C)c(F)c1 [AB27325] | 268 nM | – | – | – | 22 nM | 2010 nM | 380 nM
Cc1cn(Cc2ccccc2)c2cc[n+](C3CCc4ccc(OC(F)(F)F)cc4C3=O)cc12 (centres unmarked) [AB27175] | 2860 nM | – | – | – | 226 nM | 3860 nM | 1230 nM
Cc1c2ccn(Cc3ccccc3)c2cc[n+]1C1CCc2ccc(Cl)cc2C1=O (centres unmarked) [AB27219] | 1320 nM | – | – | – | 85 nM | 5090 nM | 2120 nM
O=C1c2sccc2CCC1n1ccc2c[n+](Cc3ccccc3)ccc21 (centres unmarked) [AB27345] | 904 nM | – | – | – | 76 nM | 6690 nM | 2040 nM
CC(=O)N(Cc1ccccc1)c1cc[n+](C2CCc3ccc(Cl)cc3C2=O)cc1 (centres unmarked) [AB27230] | 1260 nM | – | – | – | 126 nM | 2920 nM | 920 nM
CC(c1ccccc1)n1cc2cc[n+](C3CCc4ccc(Cl)cc4C3=O)cc2c1 (centres unmarked) [AB27481] | 2730 nM | – | – | – | 228 nM | 2720 nM | 650 nM
O=C1c2cc(F)ccc2CCC1[n+]1cnc2c(ccn2Cc2ccccc2)c1 (centres unmarked) [AB27355] | 1020 nM | – | – | – | 121 nM | 5920 nM | 1170 nM
O=C1c2cc(Cl)ccc2CCC1[n+]1ccc2cn(-c3ccccc3)cc2c1 (centres unmarked) [AB27196] | 5510 nM | – | – | – | 577 nM | 6570 nM | 2080 nM
O=C1c2cc(Cl)ccc2CCC1n1cnc2c[n+](Cc3ccccc3)ccc21 (centres unmarked) [AB31704] | 3180 nM | – | – | – | 264 nM | 3690 nM | 770 nM
Cc1cc2c[n+](Cc3ccccc3)ccc2n1CC(=O)c1cccc(OC(F)(F)F)c1 [AB27455] | 265 nM | – | – | – | 22 nM | 360 nM | 110 nM
O=C1c2cc(Cl)ccc2CCC1[n+]1ccc2c(c1)c(Cl)cn2Cc1ccccc1 (centres unmarked) [AB27172] | 2040 nM | – | – | – | 203 nM | 3940 nM | 1380 nM
O=C1c2cc(C(F)(F)F)ccc2CCC1n1ncc2c[n+](Cc3ccccc3)ccc21 (centres unmarked) [AB31774] | 7920 nM | – | – | – | 970 nM | 9920 nM | 1530 nM
Cc1ccc2c(c1)CCC(n1ncc3c[n+](Cc4ccccc4)ccc31)C2=O (centres unmarked) [AB31777] | 1990 nM | – | – | – | 128 nM | 6990 nM | 1230 nM
O=C(Cn1c(Br)cc2c[n+](Cc3ccccc3)ccc21)c1cccc(OC(F)(F)F)c1 [AB27489] | 287 nM | – | – | – | 23 nM | 370 nM | 170 nM
Cc1cn(Cc2ccccc2)c2cc[n+](C3CCc4ccc(F)cc4C3=O)cc12 (centres unmarked) [AB27470] | 2430 nM | – | – | – | 112 nM | 3230 nM | 930 nM
Nc1cc[n+](CC(=O)c2ccccc2)cc1 [AB36527] | 36500 nM | – | – | – | 39700 nM | 39100 nM | 40900 nM
Cc1ccc2c(c1)C(=O)C(n1ccc3c[n+](Cc4ccccc4)ccc31)CC2 (centres unmarked) [AB27192] | 214 nM | – | – | – | 12 nM | 190 nM | 30 nM
O=C1c2cc(Cl)ccc2CCC1[n+]1ccc2c(c1)c(F)cn2Cc1ccccc1 (centres unmarked) [AB27173] | 2030 nM | – | – | – | 135 nM | 3430 nM | 1020 nM
